Reference: US5296591A, “Trifluoromethylketone derivatives, processes for preparation thereof and use thereof” (Fujisawa Pharmaceutical Co., Ltd., priority 1990, dated 1994)
Read-outs that look alike come from different tables or passages of the source.

Assays:
[1] = biological target: T1, human sputum elastase (HSE) (Homo sapiens, UniProt P08246); test: Protease inhibition assay (in vitro), human sputum elastase; format: biochemical; details: substrate methoxysuccinyl-(Ala)2-Pro-Val-p-nitroanilide, 30 min, room temperature, pH 7.5
T1 construct: HSE was obtained from Elastin Products Company Inc., Mo., U.S.A; purchased Elastin Products Company Inc; host or cells: human sputum (from the enzyme's name)
T1 sequence (P08246 30-267): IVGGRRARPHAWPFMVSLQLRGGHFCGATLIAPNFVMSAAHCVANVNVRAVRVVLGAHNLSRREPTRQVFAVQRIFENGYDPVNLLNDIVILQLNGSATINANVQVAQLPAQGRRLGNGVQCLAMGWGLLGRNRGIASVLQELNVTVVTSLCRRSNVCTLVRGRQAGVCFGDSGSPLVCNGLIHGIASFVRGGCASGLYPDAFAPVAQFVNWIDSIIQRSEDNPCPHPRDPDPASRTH
Description: (§1) A buffer used throughout the assay was 0.1M HEPES (4-(2-hydroxyethyl)-1-piperazineethanesulfonic acid) containing 0.5M NaCl, pH 7.5. Twenty-five microliters of 2 mM methoxysuccinyl-(Ala)2 -Pro-Val-p-nitroanilide (100 mM of dimethyl sulfoxide solution were diluted in the buffer) and 50 μl of sample (10 μl of sample in organic solvent was diluted 5-fold in the buffer) were mixed in wells of 96 well-microliter plate. An absorbance of the mixture in wavelength at 415 nm was measured by a microplate reader (Corona Electric Co., Ibaraki, Japan). After the measurement, 25 μl of 6 μg/ml human sputum elastase (HSE) was added and the mixture was allowed to stand for 30 minutes at room temperature. Then, the absorbance at 415 nm was measured. Percent inhibition by drug was determined by 100×(1-"r" inhibitor present/"r" inhibitor absent), where "r" is absorbance after 30 minutes incubation minus absorbance before enzyme addition. Effect of inhibitors against porcine pancreas elastase (Type IV, 5 μg/ml final) was assayed similarly using N-succinyl-(Ala)3 -p-nitroanilide. HSE was obtained from Elastin Products Company Inc., Mo., U.S.A. All other substrates and protease were purchased from Sigma Chemicals Co.

[2] = biological target: T2, porcine pancreas elastase (Type IV) (Sus scrofa, UniProt P00772); test: Protease inhibition assay (in vitro), porcine pancreas elastase; format: biochemical; details: substrate N-succinyl-(Ala)3-p-nitroanilide, enzyme 5 μg/ml final
T2 construct: purchased Sigma Chemicals Co; host or cells: porcine pancreas (from the enzyme's name)
T2 sequence (P00772 27-266): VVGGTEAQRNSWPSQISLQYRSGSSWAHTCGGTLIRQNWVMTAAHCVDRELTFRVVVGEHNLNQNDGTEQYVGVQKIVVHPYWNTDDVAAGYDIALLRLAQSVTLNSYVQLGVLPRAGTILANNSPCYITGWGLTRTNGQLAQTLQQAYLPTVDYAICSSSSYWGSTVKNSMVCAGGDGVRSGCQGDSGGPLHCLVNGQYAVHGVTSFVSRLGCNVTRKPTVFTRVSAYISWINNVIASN
Description: as §1

[3] = tested on: human sputum elastase-induced lung hemorrhage in hamsters; test: Elastase-induced pulmonary damage (lung hemorrhage) in hamsters; format: in vivo, hamster; details: 5 min predose; for Hemorrhage (OD541 nm): BAL hemoglobin 3 h after elastase; for ED50 elastase-induced lung hemorrhage: intratracheal
Description: Hamsters under pentobarbital anesthesia were used. Saline or saline-containing human sputum elastase was instilled intratracheally via a small incision in the ventral neck region using 1-ml syringe with a 27-gauge needle. After 3 hours, animals were sacrificed by CO2 asphyxiation, each animal's trachea was reexposed. The lungs were then laveged using a 2.5-ml aliquot of saline and then withdrawing the saline, yielding a final volume of approximately 1.5 ml bronchoalveolar lavage (BAC) fluid from each animal.
The cells of BAL fluid were collected by centrifugation and were then diluted with distilled water to disrupt, and the hemoglobin contents determined spectrophotometrically at 541 nm.
Test drugs were dissolved in saline or methyl cellulose, and instilled intratracheally in the same manner as used to instill elastase, at 5 minutes before instillation of elastase.

[4] = read-out: IC50 Porcine pancreas elastase

| Compound | IC50 [1] | IC50 [2, 4] | other results |
| --- | --- | --- | --- |
| CC(C)C(NC(=O)[C@@H]1CCCN1C(=O)[C@@H](NC(=O)c1ccc(C(=O)NCCN2CCOCC2)cc1)C(C)C)C(=O)C(F)(F)F.Cl (mixture of isomers) [Example 21, 3(RS)-[[4-[[2-(4-morpholino)ethyl]aminocarbonyl]phenylcarbonyl]-L-valyl-L-prolyl]amino-1,1,1-trifluoro-4-methyl-2-oxopentane hydrochloride] | 1200 nM | 3700 nM | % inhibition of elastase-induced lung hemorrhage ([3]; 1 μg/site intratracheal): 13.6%; Hemorrhage (OD541 nm) ([3]; 1 μg/site intratracheal): 12.76 ± 1.11 OD541 nm; % inhibition of elastase-induced lung hemorrhage ([3]; 10 μg/site intratracheal): 66.3%; Hemorrhage (OD541 nm) ([3]; 10 μg/site intratracheal): 5.372 ± 2.06 OD541 nm; % inhibition of elastase-induced lung hemorrhage ([3]; 100 μg/site intratracheal): 100.0%; Hemorrhage (OD541 nm) ([3]; 100 μg/site intratracheal): 0.6476 ± 0.129 OD541 nm; ED50 elastase-induced lung hemorrhage [3]: 4.5 μg/site |
| CC(C)C(NC(=O)[C@@H]1CCCN1C(=O)[C@@H](NC(=O)c1ccc(C(=O)N[C@@H](CCC(=O)O)C(=O)O)cc1)C(C)C)C(=O)C(F)(F)F (mixture of isomers) [Example 17, 3(RS)-[[4-[(1(S),3-Dicarboxypropyl)aminocarbonyl]-phenylcarbonyl]-L-valyl-L-prolyl]amino-1,1,1-trifluoro-4-methyl-2-oxopentane] | 1100 nM | 3400 nM |  |
| CC(C)C(NC(=O)[C@@H]1CCCN1C(=O)[C@@H](NC(=O)c1ccc(C(=O)NN2CCOCC2)cc1)C(C)C)C(=O)C(F)(F)F (mixture of isomers) [Example 4, 3(RS)-[[4-[(4-Morpholino)aminocarbonyl]-phenylcarbonyl]-L-valyl-L-prolyl]amino-1,1,1-trifluoro-4-methyl-2-oxopentane] | 1400 nM | 2900 nM |  |
| CC(C)C(NC(=O)[C@@H]1CCCN1C(=O)[C@@H](NC(=O)c1ccc(C(=O)NCC(=O)O)cc1)C(C)C)C(=O)C(F)(F)F (single isomer, unassigned) [Example 15, 3(R or S)-[[4-(Carboxymethylaminocarbonyl)phenylcarbonyl]-L-valyl-L-prolyl]amino-1,1,1-trifluoro-2-oxo-4-methylpentane] | 610 nM |  | IC50 ([2]; IC50 Porcine pancreas elastase): 2000 nM |
| CC(C)C(NC(=O)[C@@H]1CCCN1C(=O)[C@@H](NC(=O)Nc1ccc(C(=O)NCC(=O)N(C)C)cc1)C(C)C)C(=O)C(F)(F)F (mixture of isomers) [Example 24, 3(RS)-[[4-(Dimethylaminocarbonylmethylaminocarbonyl)phenylaminocarbonyl]-L-valyl-L-prolyl]amino-1,1,1-trifluoro-2-oxo-4-methylpentane] | 1400 nM | 3800 nM |  |
| CC(C)C(NC(=O)[C@@H]1CCCN1C(=O)[C@@H](NC(=O)c1ccc(C(=O)N[C@H](Cc2ccccc2)C(=O)OCc2ccccc2)cc1)C(C)C)C(=O)C(F)(F)F (mixture of isomers) [Example 8, 3(RS)-[[4-[[(1(R)-Benzyloxycarbonyl)-2-phenyl]ethylaminocarbonyl]phenylcarbonyl]-L-valyl-L-prolyl]amino-1,1,1-trifluro-4-methyl-2-oxopentane] | 870 nM | 16000 nM |  |
| CC(C)C(NC(=O)[C@@H]1CCCN1C(=O)[C@@H](NC(=O)c1ccc(C(=O)NCCCC(=O)OCC(=O)c2ccccc2)cc1)C(C)C)C(=O)C(F)(F)F (mixture of isomers) [Example 3, 3(RS)-[[4-[(3-Benzoylmethoxycarbonyl)propylaminocarbonyl]phenylcarbonyl]-L-valyl-L-prolyl]amino-1,1,1-trifluoro-4-methyl-2-oxopentane] | 980 nM | 8700 nM |  |
| CC(C)C(NC(=O)[C@@H]1CCCN1C(=O)[C@@H](NC(=O)c1ccc(C(=O)N[C@@H](CCC(=O)OCc2ccccc2)C(=O)OCc2ccccc2)cc1)C(C)C)C(=O)C(F)(F)F (mixture of isomers) [Example 10, 3(RS)-[[4-[[1(S),3-bis(Benzyloxycarbonyl)propyl]aminocarbonyl]phenylcarbonyl]-L-valyl-L-prolyl]amino-1,1,1-trifluoro-4-methyl-2-oxopentane] | 8000 nM | 310000 nM |  |
| CC(C)C(NC(=O)[C@@H]1CCCN1C(=O)[C@@H](NC(=O)c1ccc(C(=O)NCC(=O)O)cc1)C(C)C)C(=O)C(F)(F)F (single isomer, unassigned) [Example 16, 3(R or S)-[[4-(Carboxymethylaminocarbonyl)phenylcarbonyl]-L-valyl-L-prolyl]amino-1,1,1-trifluoro-2-oxo-4-methylpentane] | 7100 nM |  | IC50 ([2]; IC50 Porcine pancreas elastase): 30000 nM |

The next lines start with results.

| IC50 [1] | IC50 [2, 4] | Compound | other results |
| --- | --- | --- | --- |
| 300 nM | 5100 nM | CC(C)C(NC(=O)[C@@H]1CCCN1C(=O)[C@@H](NC(=O)c1ccc(C(=O)NCc2ccc(Cl)cc2)cc1)C(C)C)C(=O)C(F)(F)F (mixture of isomers) [Example 5, 3(RS)-[[4-[(4-Chlorobenzyl)aminocarbonyl]-phenylcarbonyl]-L-valyl-L-prolyl]amino-1,1,1-trifluoro-4-methyl-2-oxopentane] |  |
| 610 nM | 3800 nM | CC(C)C(NC(=O)[C@@H]1CCCN1C(=O)[C@@H](NC(=O)c1ccc(C(=O)NCc2ccc(N)cc2)cc1)C(C)C)C(=O)C(F)(F)F (mixture of isomers) [Example 18, 3(RS)-[[4-[(4-aminobenzyl)aminocarbonyl]phenylcarbonyl]-L-valyl-L-prolyl]amino-1,1,1-trifluoro-4-methyl-2-oxopentane] |  |
| 450 nM | 4400 nM | CC(C)C(NC(=O)[C@@H]1CCCN1C(=O)[C@@H](NC(=O)c1ccc(C(=O)NCC(=O)OCc2ccccc2)cc1)C(C)C)C(=O)C(F)(F)F (mixture of isomers) [Example 1, 3(RS)-[[4-[(benzyloxycarbonyl)methylaminocarbonyl]-phenylcarbonyl]-L-valyl-L-prolyl]amino-1,1,1-trifluoro-4-methyl-2-oxopentane] |  |
| 680 nM | 4900 nM | CC(C)C(NC(=O)[C@@H]1CCCN1C(=O)[C@@H](NC(=O)Nc1ccc(C(=O)NCC(=O)OCc2ccccc2)cc1)C(C)C)C(=O)C(F)(F)F (mixture of isomers) [Example 22, 3(RS)-[[4-(Benzyloxycarbonylmethylaminocarbonyl)phenylaminocarbonyl]-L-valyl-L-prolyl]amino-1,1,1-trifluoro-2-oxo-4-methylpentane] |  |
| 870 nM | 9500 nM | CC(C)C(NC(=O)[C@@H]1CCCN1C(=O)[C@@H](NC(=O)c1ccc(C(=O)N[C@@H](Cc2ccccc2)C(=O)OCc2ccccc2)cc1)C(C)C)C(=O)C(F)(F)F (mixture of isomers) [Example 9, 3(RS)-[[4-[[(1(S)-Benzyloxycarbonyl)-2-phenyl]ethylaminocarbonyl]phenylcarbonyl]-L-valyl-L-prolyl]amino-1,1,1-trifluoro-4-methyl-2-oxopentane] |  |
| 810 nM | 2400 nM | 3(RS)-[[4-(Carboxymethylaminocarbonyl)phenylaminocarbonyl]-L-valyl-L-prolyl] amino-1,1,1-trifluoro-2-oxo-4-methylpentane [Example 23] | % inhibition of elastase-induced lung hemorrhage ([3]; 1 μg/site intratracheal): 16.0%; Hemorrhage (OD541 nm) ([3]; 1 μg/site intratracheal): 9.435 ± 0.941 OD541 nm; % inhibition of elastase-induced lung hemorrhage ([3]; 10 μg/site intratracheal): 75.6%; Hemorrhage (OD541 nm) ([3]; 10 μg/site intratracheal): 3.412 ± 1.31 OD541 nm; % inhibition of elastase-induced lung hemorrhage ([3]; 100 μg/site intratracheal): 102.1%; Hemorrhage (OD541 nm) ([3]; 100 μg/site intratracheal): 0.7258 ± 0.303 OD541 nm; ED50 elastase-induced lung hemorrhage [3]: 3.2 μg/site |
| 430 nM | 6900 nM | CC(C)C(NC(=O)[C@@H]1CCCN1C(=O)[C@@H](NC(=O)c1ccc(C(=O)NCc2ccc([N+](=O)[O-])cc2)cc1)C(C)C)C(=O)C(F)(F)F (mixture of isomers) [Example 6, 3(RS)-[[4-[(4-Nitrobenzyl)aminocarbonyl]phenylcarbonyl]-L-valyl-L-prolyl]amino-1,1,1-trifluoro-4-methyl-2-oxopentane] |  |
| 320 nM | 3800 nM | CC(C)C(NC(=O)[C@@H]1CCCN1C(=O)[C@@H](NC(=O)c1ccc(C(=O)Nc2ccc(Cl)cc2)cc1)C(C)C)C(=O)C(F)(F)F (mixture of isomers) [Example 7, 3(RS)-[[4-[(4-Chlorophenyl)aminocarbonyl]phenylcarbonyl]-L-valyl-L-prolyl]amino-1,1,1-trifluoro-4-methyl-2-oxopentane] |  |
